Where “and” joins values, the source holds several entries; their conditions need not be identical. Equal entries are not always repeated. Entries after “also recorded” stand apart in the source; their conditions may differ.

The values below come from patent US20180117047A1, “DRUG FOR PREVENTING AND/OR TREATING DEMENTIA” (NATIONAL UNIVERSITY CORPORATION TOTTORI UNIVERSITY, priority 2015, published 2018).

The test system of test [1] is Tg(APPSWE)2576KhaTg(Prnp-MAPT*P301L)JNPL3HImc Alzheimer's disease model double transgenic mice. Nature of the test: Number and size of senile plaques in cerebrum coronal cut surfaces of Alzheimer's disease model double transgenic mice (HE, Aβ40, Aβ42 staining). It counts as in vivo, mouse.
For test [2] the test system is unchanged. Kind of test: Number of nerve cells having AT8 immunostaining-positive neurofibrillary tangles in Alzheimer's disease model double transgenic mice. The format is in vivo, mouse.
[3] abbreviates: individual mouse, diameter 50 μm or smaller, 5 mg/kg oral every day from one year old, sampled at 730 to 745 days old, 5 mg/kg.
Where [4] appears, read: individual mouse, diameter 100 μm or larger, 5 mg/kg oral every day from one year old, sampled at 730 to 745 days old, 5 mg/kg.
[5] abbreviates: individual mouse, diameter between 50 μm and 100 μm, 5 mg/kg oral every day from one year old, sampled at 730 to 745 days old, 5 mg/kg.
Setting [6] is: individual mouse, 5 mg/kg oral every day from one year old, sampled at 730 to 745 days old, 5 mg/kg.

Consider `N#Cc1cc(-c2nc3c(O)ncnc3s2)ccc1Oc1ccccc1` [compound A, 5-(7-hydroxythiazolo[5,4-d]pyrimidin-2-yl)-2-phenoxy-benzonitrile], for which the “Large-sized senile plaques in the hippocampus compared with placebo control group (photographs)” value in test [1] (HE staining, Aβ40 and Aβ42 immunostaining, FIG. 6 vs FIG. 5) is “clearly fewer”. Besides, in test [1] (group average±standard deviation, 4 mice, 5 mg/kg oral daily about one year, control 26.9±12.3), the “Number of large-sized senile plaques per one cerebrum coronal cut surface” value was 11.1±5.9. Also, the “Number of medium-sized senile plaques per one cerebrum coronal cut surface” value in test [1] (group average±standard deviation, 4 mice, 5 mg/kg oral daily about one year, control 44.3±14.5) turned out to be 30.9±20.5. For the same molecule, in test [1] (group average±standard deviation, 4 mice, 5 mg/kg oral daily about one year, control 88.3±35.2), the “Number of small-sized senile plaques per one cerebrum coronal cut surface” value worked out at 104.4±36.8. Further, in test [1] (setting [3]), the “Number of small senile plaques, entorhinal cortex coronal cut surface” value is 96 and 78 and 110 and 164; the “Number of small senile plaques, mammillary body coronal cut surface” value was 113 and 38 and 106 and 130. In addition, in test [1] (setting [4]), the “Number of large-sized senile plaques, entorhinal cortex coronal cut surface” value is 16 and 10 and 11 and 2; the “Number of large-sized senile plaques, mammillary body coronal cut surface” value was 21 and 12 and 5. Further, in test [1] (setting [5]), the “Number of medium-sized senile plaques, entorhinal cortex coronal cut surface” value is 78 and 24 and 31 and 14; the “Number of medium-sized senile plaques, mammillary body coronal cut surface” value is 33 and 12 and 25 and 30. In addition, the “Number of large-sized senile plaques compared with the control group” value in test [1] (p=0.013, Mann-Whitney U test, 5 mg/kg oral daily, FIG. 7, 5 mg/kg) is on record as “significantly smaller; also recorded: significantly suppresses; also recorded: especially suppressed”. Moreover, in test [1] (p=0.036, Mann-Whitney U test, 5 mg/kg oral daily, FIG. 7, 5 mg/kg), the “Number of medium-sized senile plaques compared with the control group” value is on record as “significantly smaller; also recorded: significantly suppresses; also recorded: especially suppressed”. Further, in test [1] (p=0.400, Mann-Whitney U test, 5 mg/kg oral daily, FIG. 7), the “Number of small senile plaques compared with the control group” value is “Any significant difference was not observed”. Also, in test [2] (FIG. 10, 5 mg/kg oral daily), the “Tangle number as percentage of that of the control group” value turned out to be 36%. The “Number of nerve cells having AT8 immunostaining-positive neurofibrillary tangles per one cerebrum coronal cut surface” value in test [2] (group average±standard deviation, 4 mice, 5 mg/kg oral daily about one year, control 209.9±46.0) came out at 77.0±67.1. For the same molecule, in test [2] (setting [6]), the “Number of nerve cells having AT8 immunostaining-positive neurofibrillary tangles, amygdaloid nucleus maximum diameter coronal cut surface” value is 103 and 175 and 13 and 18; the “Number of nerve cells having AT8 immunostaining-positive neurofibrillary tangles, hypothalamus coronal cut surface” value was 149 and 119 and 26 and 13. In addition, the “Number of nerve cells having AT8 immunostaining-positive neurofibrillary tangles compared with the control group” value in test [2] (p=0.016, Mann-Whitney U test, amygdaloid nucleus and hypothalamus, 5 mg/kg oral daily, FIG. 9, 10, 5 mg/kg) is “significantly smaller; also recorded: markedly suppresses; also recorded: fewer; also recorded: significantly lower”.
